In patent US7615380B2, “Methods for modulating an immune response by modulating KRC activity” (President and Fellows of Harvard College, priority 2001, dated 2009):

Key:
NFκB = NFκB luciferase reporter transfection assay in 293T cells; type: cell-based, human
Protocol: FIGS. 2(A)-2(C) depicts KRC preventing TRAF-dependent NFkB activation. Inhibition of TRAF2 (FIG. 2(A)), TRAF5 (FIG. 2(B)) and TRAF6 (FIG. 2(C)) mediated activation of NFkB by ectopically expressed KRC. 293 T cells (3×10^5 ) were transfected with 25 ng of NFkB luciferase reporter plasmid, 50 ng of CMVβGal and 1 μg of each indicated plasmid and 24 hours post transfection cells were harvested. Data from at least five experiments normalized for β galactosidase activity are shown. Vec refers to the empty MYC vector without the addition of TRAFs.
293 T cells (3×10^5 ) were transfected with 25 ng of NFκB luciferase reporter plasmid, 50 ng of CMVβGal and 1 μg of each indicated plasmid and 24 hours post transfection cells were stimulated for 4 hours with 10 ng/ml of TNFα. (A) KRC and KRC tr (B) dominant negative and antisense KRC (C) antisense KRC in the presence of exogenous TRAF2. Data from at least five experiments normalized for β galactosidase activity are shown.
HEK293 cells ([…] per well) were seeded in 6 well plates, and 12 h later cells were transfected with EFECTENE™ (Qiagen) with 25 ng of a 2XNFκB-luciferase (Luc) reporter gene plasmid and 0.5 μg of the indicated TRAF and KRC expression vectors. Total amounts of transfected DNA were kept constant by supplementing with control empty expression vector plasmids as needed. Cell extracts were prepared 24 h after transfection, and reporter gene activity was determined via the luciferase assay system (PROMEGA). PRSV-βGal vector (50 ng) was used to normalize for transfection efficiency by measuring β galactosidase activity using the Galacton-PLUS substrate system (TROPIX, Inc.). Whenever indicated, the cells were treated for 4 hours with TNFα or IL-1 (10 ng/ml). To generate stable transfectants, EFECTENE™ mediated transfection of the RAW cell line was performed and clones were selected and maintained in complete medium supplemented with G418 (2 mg/ml).

NIH 3T3 cells = assay: β-galactosidase cotransfection apoptosis assay in 3T3 cells; type: cell-based; conditions: TNFα 20 ng/ml
Protocol: 3T3 cells were cotransfected with CMV lacZ vector (300 ng per plate) and either empty expression vector or the expression vectors indicated (2 μg of each). Half of the transfected cultured cells were treated with TNFα (20 ng/ml) at 12 hours after the transfection and the other half left untreated. All the cells were fixed and stained at 36 hours after the transfection. The number of blue cells in each transfection was determined by counting six different fields. A representative experiment of three performed is presented.
β-galactosidase cotransfection assays for determination of cell death were performed as described (Hsu, et al.). Transfected NIH 3T3 cells were washed with PBS, fixed in PBS containing 3% paraformaldehyde for 10 min at 4° C., and washed with PBS. Fixed cells were stained overnight with XGal. The number of blue-stained cells was determined microscopically. The average number from one representative experiment of three is shown.

IL-2 = IL-2 ELISA in retrovirally transduced primary CD4+ T cells; type: cell-based; conditions: anti CD3 or anti CD3 plus CD28, 24 hours
Protocol: In panel A Jurkat T cells were stably transfected with vector (pEF) or KRC expression plasmids. Stable clones were stimulated for 18 hours with PMA (50 ng/mL) plus ionomycin (2 μM) and IL-2 production was measured by ELISA. In panel B Primary CD4+ T cells were activated for 36 hours and subsequently transduced with control (RV), KRC, or KRC dominant negative (ZAS2) bicistronic GFP-expressing retroviruses. GFP-positive cells were sorted and stimulated for 24 hours with anti-CD3 or anti-CD3/anti-CD28 antibodies and IL-2 production was measured by ELISA. In panel C CD4 T cells from KRC +/+ or −/− mice were stimulated with anti-CD3 (1.0 μg/mL)/CD28 (0.5 μg/mL) antibodies for 24 hours and IL-2 production was measured by ELISA. In panel D CD4 T cells from KRC +/+ or −/− mice were stimulated with anti-CD3/CD28 antibodies for 72 hours in the presence of 200 U/mL human IL-2. IFNγ production was measured by ELISA.
Activated CD4^+T cells were transduced by RV, RV-KRC or RV-ZAS2 as described previously (Szabo, S. J., et al. (2000) Cell 100:655-669).
Therefore, the effects of KRC overexpression were studied in primary CD4+T cells as well as in the Jurkat line using a retroviral delivery system to express KRC in primary CD4+T cells. […] The ability of each population to produce IL-2 following subsequent activation by anti CD3 or anti CD3 plus CD28 was measured at 24 hours post-stimulation. […]

## KRC: full-length KRC zinc finger protein (SEQ ID NO:2) overexpressed from an expression vector
NFκB; 293T cells
  NFκB activation induced by TRAF5 and TRAF6: substantially but not completely affected
NFκB; 293T cells, absence of exogenous TRAFs
  NFkB-dependent transactivation: blocked NFkB-dependent transactivation
NFκB; 293T cells, exogenous TRAF2
  TRAF2-induced NFκB activation: blocked TRAF2-induced NFκB activation
NFκB; 293 cells, 10 ng/ml TNFα 4 hours
  TNFα-induced NFκB activation: strongly inhibited TNFα-induced NFκB activation
NIH 3T3 cells
  TNFα-induced apoptosis (TNF mediated cytotoxicity): increase in TNF mediated cytotoxicity
IL-2
  IL-2 production, increase versus GFP control retrovirus: 3 to 4 fold
